Where “and” joins values, the source holds several entries; their conditions need not be identical. Identical values can stand only once. Entries after “also recorded” stand apart in the source; their conditions may differ.
Tests used:
SR Ca2+ pump (SERCA2a) = biological target: T1, SR Ca2+ pump (SERCA2a) (Mus musculus, UniProt O55143); experiment: ATP-dependent Ca2+ uptake by murine cardiac SR vesicles (stopped-flow, arsenazo III); assay type: biochemical; design: total Ca2+ uptake at equilibrium: unit not given here
T1 construct: Crude cardiac microsomal vesicles containing fragmented sarcoplasmic reticulum (SR) were prepared; from tissue; host or cells: pooled hearts of C57 male mice (crude SR microsomal vesicles)
Procedure: Crude cardiac microsomal vesicles containing fragmented sarcoplasmic reticulum (SR) were prepared as previously described for rat heart. Froehlich, J. P. et al., J. Mol. Cell. Cardiol., 10, 427-438 (1978). Pooled hearts from C57 male mice sacrificed by cervical dislocation were placed in 0.9% saline on ice, trimmed of atrial and connective tissue, and weighed. The finely minced heart muscle was homogenized in 10 mM NaHCO3 using a Polytron blender and the SR vesicles were separated from the myofilaments, mitochondria and nuclear membranes by differential centrifugation at 8,500 and 45,000×g. SR vesicles suspended in 0.25 M sucrose+10 mM MOPS, pH 7.0 were frozen and stored in liquid nitrogen prior to use. Twenty minutes prior to measuring Ca^2+ uptake, cardiac SR vesicles (1 mg/ml in storage buffer) were incubated with 250 μM AS delivered from a freshly-prepared 10 mM stock solution of AS (Na2N2O3) dissolved in 10 mM NaOH. […] Stopped-flow mixing was used to measure the initial time course of Ca^2+ accumulation by murine cardiac SR vesicles using the Ca^2+ indicator dye, arsenazo III. Membrane vesicles (0.4 mg/ml) suspended in a medium containing 100 mM KCl, 1 mM MgCl2, 50 μM arsenazo III, 5 mM sodium azide, and 20 mM MOPS, pH 7.4, were mixed with an equal volume of an identical medium containing 1 mM Na2ATP at 24° C. in a manually-operated stopped-flow apparatus (Applied Photophysics, Ltd.). The change in [Ca^2+] in the mixing cuvette was monitored using a single-beam UV-VIS spectrophotometer (AVIV, Model 14DS) with a monochromator setting of 650 nm. The total [Ca^2+] in the uptake medium was 0.5 μM, yielding a free [Ca^2+] in equilibrium with the Ca-arsenazo III complex of 0.2 μM (KA=3.3×10^4 M^−1). […] The time-dependent decrease in absorbance at 650 nm, reflecting Ca^2+ uptake by the SR vesicles, was monitored for 30-60 s at 0.1 s intervals. […] The signal change due to vesicle light scattering was evaluated from separate measurements conducted under identical conditions at the isosbestic wavelength of 693 nm. For evaluation of the time course of Ca^2+ uptake, a representative trace at 693 nm was subtracted from each of the individual traces at 650 nm acquired under identical conditions. The kinetic and thermodynamic parameters for Ca^2+ uptake were evaluated by fitting stopped-flow signals to one- and two-exponential decay functions plus a residual term using non-linear regression (Prism, Version 3.03). Residual plots of the difference between the fitted curve and data points were used to evaluate systematic errors in the fits and to calculate the sum-of-squares error used in selecting the best fit.
To test whether HNO directly enhances SR Ca^2+ uptake, its effects on SR membrane vesicles isolated from pooled C57/Bl6 mouse hearts were studied. Crude SR microsomal vesicles were incubated with 250 μM AS prior to measuring ATP-dependent Ca uptake by stopped-flow mixing at 24° C. Arsenazo III, a mid-range Ca indicator, was used to monitor Ca removal from the eravesicular compartment and buffer the free [Ca^2+] at a level producing half-saturation of the Ca^2+ pump (˜0.2 μM).

[1] = tested on: isolated mouse ventricular myocytes; experiment: Sarcomere shortening in field-stimulated isolated mouse ventricular myocytes; assay type: cell-based
Procedure: Wild type 2-4 month old mice were anesthetized with intraperitoneal pentobarbital sodium (100 mg/kg/ip). Hearts were perfused as previously described. Mongillo, M. et al., Circ. Res., 98, 226-234 (2006). To assess for sarcomere shortening, cells were imaged using field stimulation (Warner instruments) in an inverted fluorescence microscope (Diaphot 200; Nikon, Inc). Sarcomere length was measured by real-time Fourier transform (IonOptix MyoCam, CCCCD100M) and cell twitch amplitude is expressed as a percentage of resting cell length. Twitch kinetics was quantified by measuring the time to peak shortening and the time from peak shortening to 50% relaxation. For whole calcium transient measurements, myocytes were loaded with the Ca^2+ indicator fluo-4/AM (Molecular Probes, 20 μM for 30 min) and Ca^2+ transients were measured under field-stimulation at 0.5 Hz in perfusion solution by confocal laser scanning microscope (LSM510, Carl Zeiss). Digital image analysis used customer-designed programs coded in Interactive Data Language (IDL).
Nitroxyl (HNO) confers positive inotropy in vivo. Here, it was determined whether HNO action stems from a direct influence on sarcoplasmic reticulum (SR) Ca^2+ cycling, involving enhanced Ca^2+ release from ryanodine receptors (RyR2). Myocytes were isolated from ST mice, suspended in Tyrode's solution (1 mM Ca^2+) and field stimulated (0.5 Hz, 25° C.). Sarcomere shortening (SS) was assessed by real-time image analysis, Ca^2+ transients from Indo-1 fluorescence. RyR2 activity was determined by optical imaging of Ca^2+ release from single Ca^2+ release units.

T1 sequence (O55143 1-998 isoform O55143-2): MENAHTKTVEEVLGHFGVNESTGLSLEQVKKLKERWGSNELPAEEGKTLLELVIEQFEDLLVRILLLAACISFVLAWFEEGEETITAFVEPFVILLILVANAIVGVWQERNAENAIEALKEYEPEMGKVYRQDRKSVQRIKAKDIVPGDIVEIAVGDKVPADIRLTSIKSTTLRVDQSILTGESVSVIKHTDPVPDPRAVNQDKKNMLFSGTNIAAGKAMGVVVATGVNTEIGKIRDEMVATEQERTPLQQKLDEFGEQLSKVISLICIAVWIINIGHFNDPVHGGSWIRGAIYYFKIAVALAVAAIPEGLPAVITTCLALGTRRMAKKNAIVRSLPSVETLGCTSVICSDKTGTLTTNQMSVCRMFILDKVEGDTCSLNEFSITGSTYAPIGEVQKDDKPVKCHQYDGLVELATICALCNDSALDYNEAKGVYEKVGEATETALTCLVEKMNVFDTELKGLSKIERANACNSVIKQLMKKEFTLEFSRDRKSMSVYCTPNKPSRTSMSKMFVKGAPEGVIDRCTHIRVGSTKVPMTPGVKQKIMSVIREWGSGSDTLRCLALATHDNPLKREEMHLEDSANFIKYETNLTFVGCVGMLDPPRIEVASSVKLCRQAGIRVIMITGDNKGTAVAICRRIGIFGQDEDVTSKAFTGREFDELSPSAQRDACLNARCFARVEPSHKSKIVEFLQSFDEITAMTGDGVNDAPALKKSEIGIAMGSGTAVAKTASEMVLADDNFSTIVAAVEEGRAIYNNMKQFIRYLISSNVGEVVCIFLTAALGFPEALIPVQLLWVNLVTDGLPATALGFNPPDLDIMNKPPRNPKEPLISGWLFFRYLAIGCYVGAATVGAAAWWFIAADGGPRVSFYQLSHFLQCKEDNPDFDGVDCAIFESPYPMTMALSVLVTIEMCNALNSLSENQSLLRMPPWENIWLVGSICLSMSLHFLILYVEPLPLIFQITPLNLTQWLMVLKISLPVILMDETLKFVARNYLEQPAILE

[Na+].[Na+].[O-][N+]([O-])=NO [AS, Angeli's salt]
increase of rate constant for Ca2+ uptake (SR Ca2+ pump (SERCA2a); 250 μM AS, 0.2 μM free Ca2+, 24° C., n=6): 104% | rate constant for Ca2+ uptake (SR Ca2+ pump (SERCA2a); 250 μM AS, without AS 0.1563): 0.3204 s⁻¹ | rate of initial Ca2+ uptake (SR Ca2+ pump (SERCA2a); AS 250 μM): enhanced | total Ca2+ uptake at equilibrium (SR Ca2+ pump (SERCA2a); after AS exposure, before 0.00257±0.0003, p=NS): 0.00202±0.000 | SR Ca2+ uptake activity after AS solution decayed completely to products (SR Ca2+ pump (SERCA2a); decayed AS test solution (e.g. nitrite)): No stimulation | myocyte relaxation hastened (time to 50% re-lengthening) ([1]; AS): 10-20% | time until response plateaued ([1]; AS): 10 to 15 min | increase in sarcomere shortening ([1]; AS 0.5 mM): 73±31% and ~100% | contractility response (sarcomere shortening) after GSH pre-treatment ([1]; AS 0.5 mM after GSH ethyl ester 4 mM for 3 hrs): 57±19% | increase in sarcomere shortening ([1]; AS 1 mM): 131±31% and 117±25% and ~100% | increase in sarcomere shortening with guanylate cyclase inhibition ([1]; AS 1 mM with ODQ, n=15, p=NS vs. AS 1 mM): 157±40% | AS concentration above which myocyte contractility rose ([1]; AS 10^-6 to 10^-3 M, C57/BL6 myocytes): > 100 µM | effect on sarcomere shortening ([1]; AS <0.1 mM): no effect | effect of co-application on ISO (2.5 nM)-stimulated sarcomere shortening ([1]; DEA/NO 0.25 mM, AS 0.5 mM): doubled | sarcomere shortening response after GSH pre-incubation ([1]; GSH 4 mM for 3 hrs, compared with 1 mM AS alone, n=14): 58±19% | AS inotropy on co-infusion of N-acetyl-L-cysteine ([1]; NAC 3 mM): abolished | effect of PKG inhibitor Rp-8Br-cGMPs on the agent's inotropy ([1]; Rp-8Br-cGMPs 10 μM pre-treatment): did not alter; also recorded: no impact | effect of PKA inhibitor Rp-CPT-cAMPs on the agent's enhancement of sarcomere shortening ([1]; Rp-CPT-cAMPs 100 μM pre-treatment): did not alter | reversibility of response after discontinuation ([1]; at ≦500 μM, after a similar time period): fully reversible | AS inotropy on co-treatment with thapsigargin ([1]; thapsigargin 3 μM, n=16): 52±14%

Source: patent publication US20160166604A1, “Thiol-Sensitive Positive Inotropes” (priority 2005, published 2016)
